According to US7084145B2, “Triazole compounds useful in therapy” (Pfizer Inc., priority 2002, dated 2006):

Assays:
[1] = molecular target: T1, human V1A receptor (Homo sapiens, UniProt P37288); assay: V1A filter binding assay ([3H]-AVP binding to CHO-hV1A membranes); details: screen 1.0, [3H]-AVP displacement
T1 construct: host or cells: CHO cells (CHO-hV1A), membrane preparation
Method: 1.0 V1A Filter Binding Assay
Receptor binding assays were performed on cellular membranes prepared from CHO cells stably expressing the human V1A receptor, (CHO-hV1A). The CHO-hV1A cell line was kindly provided under a licensing agreement by Marc Thibonnier, Dept. of Medicine, Case Western Reserve University School of Medicine, Cleveland, Ohio. CHO-hV1A cells were routinely maintained at 37° C. in humidified atmosphere with 5% CO2 in DMEM/Hams F12 nutrient mix supplemented with 10% fetal bovine serum, 2 mM L-glutamine, 15 mM HEPES and 400 μg/ml G418. For bulk production of cell pellets, adherent CHO-hV1A cells were grown to confluency of 90–100% in 850 cm^2 roller bottles containing a medium of DMEM/Hams F12 Nutrient Mix supplemented with 10% fetal bovine serum, 2 mM L-glutamine and 15 mM HEPES. Confluent CHO-hV1A cells were washed with phosphate-buffered saline (PBS), harvested into ice cold PBS and centrifuged at 1,000 rpm. Cell pellets were stored at −80° C. until use. Cell pellets were thawed on ice and homogenised in membrane preparation buffer consisting of 50 mM Tris-HCl, pH 7.4, 5 mM MgCl2 and supplemented with a protease inhibitor cocktail, (Roche). The cell homogenate was centrifuged at 1000 rpm, 10 min, 4° C. and the supernatant was removed and stored on ice. The remaining pellet was homogenised and centrifuged as before. The supernatants were pooled and centrifuged at 25,000×g for 30 min at 4° C. The pellet was resuspended in freezing buffer consisting of 50 mM Tris-HCl, pH 7.4, 5 mM MgCl2 and 20% glycerol and stored in small aliquots at −80° C. until use. Protein concentration was determined using Bradford reagent and BSA as a standard.
Protein linearity followed by saturation binding studies were performed on each new batch of membrane. Membrane concentration was chosen that gave specific binding on the linear portion of the curve.
Compounds were tested for their effects on [^3H]-AVP binding to CHO-hV1A membranes, (^3H-AVP; specific activity 65.5 Ci/mmol; NEN Life Sciences). Compounds were solubilised in dimethylsulfoxide (DMSO) and diluted to working concentration of 10% DMSO with assay buffer containing 50 mM Tris-HCL pH 7.4, 5 mM MgCl2 and 0.05% BSA. […] The plates were sealed and counted on a TopCount Microplate Scintillation Counter (Packard Instruments). […] The radioligand binding data was analysed using a four parameter logistic equation with the min forced to 0%. […] Specific binding was calculated by subtracting the mean NSB cpm from the mean Total cpm. […] The inhibitory dissociation constant (Ki) was calculated using the Cheng-Prusoff equation: Ki=IC50/(1+[L]/Kd) where [L] is the concentration of ligand present in the well and Kd is the dissociation constant of the radioligand obtained from Scatchard plot analysis.

T1 sequence (P37288 whole entry): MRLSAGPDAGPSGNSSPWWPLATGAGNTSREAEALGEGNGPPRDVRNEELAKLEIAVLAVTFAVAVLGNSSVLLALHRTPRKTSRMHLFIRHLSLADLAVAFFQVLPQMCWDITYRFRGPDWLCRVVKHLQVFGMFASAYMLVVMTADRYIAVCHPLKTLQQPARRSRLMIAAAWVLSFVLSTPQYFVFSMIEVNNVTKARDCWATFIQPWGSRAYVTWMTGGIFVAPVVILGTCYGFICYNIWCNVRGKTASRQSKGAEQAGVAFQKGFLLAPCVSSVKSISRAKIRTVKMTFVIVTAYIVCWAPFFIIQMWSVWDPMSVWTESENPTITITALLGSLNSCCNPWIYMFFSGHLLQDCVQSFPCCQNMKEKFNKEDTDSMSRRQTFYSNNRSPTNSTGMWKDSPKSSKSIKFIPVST

## c1ccc(COCc2nnc(C3CCN(c4ccccn4)CC3)n2Cc2ccccc2)cc1 [Example 17, 4-(4-Benzyl-5-benzyloxymethyl-4H-[1,2,4]triazol-3-yl)-3,4,5,6-tetrahydro-2H-[1,2′]bipyridinyl]
[1]
  Ki: 4.67 nM

## Cc1nnc(C2CCN(c3cnccn3)CC2)n1Cc1ccccc1 [Example 23, 2-[4-(4-Benzyl-5-methyl-4H-[1,2,4]triazol-3-yl)-piperidin-1-yl]-pyrazine]
other
  melting point: 191.1 °C

## c1ccc(Cn2c(CN3CCCCC3)nnc2C2CCN(c3ccccn3)CC2)cc1 [Example 24, 4-(4-Benzyl-5-piperidin-1-ylmethyl-4H-[1,2,4]triazol-3-yl)-3,4,5,6-tetrahydro-2H-[1,2′]bipyridinyl]
[1]
  Ki: 12.1 nM

## C[C@@H](c1ccccc1)n1c(CN2CCCCC2)nnc1C1CCN(c2ccccn2)CC1 [Example 25, (S)-4-[4-(1-Phenyl-ethyl)-5-piperidin-1-ylmethyl-4H-[1,2,4]triazol-3-yl]-3,4,5,6-tetrahydro-2H-[1,2′]bipyridinyl]
[1]
  Ki: 16.1 nM

## COC1CCN(Cc2nnc(C3CCN(c4ccccn4)CC3)n2Cc2ccccc2)CC1 [Example 26, 4-[4-Benzyl-5-(4-methoxy-piperidin-1-ylmethyl)-4H-[1,2,4]triazol-3-yl]-3,4,5,6-tetrahydro-2H-[1,2′]bipyridinyl]
[1]
  Ki: 4.5 nM
